# Test results as given in patent US20220031800A1, “PEPTIDES FOR TREATING NON-EXUDATIVE MACULAR DEGENERATION AND OTHER DISORDERS OF THE EYE” (Allegro Pharmaceuticals, LLC, priority 2019, published 2022).
# Square brackets hold non-standard residues; d marks the D form. Peptide text beside a SMILES is read from it. Cya = N[C@@H](CS(=O)(=O)O)C(=O)O
# How the values were obtained:
# [1] = system: study eye of subjects with intermediate non-exudative AMD; experiment: Microperimetry (mean retinal sensitivity, number of loci summed); type: in vivo, human
# From the text: Table 9, below, summarizes number of loci with reduced retinal sensitivity summed across assessments using a 20-dB threshold, an 11-dB threshold, and by measuring absolute scotoma.
# [2] = system: primary mouse Müller cells; experiment: Trypan blue viability of primary mouse Müller cells exposed to kainic acid; type: cell-based, CD1 mice; conditions: 1.0 mg/mL risuteganib alone
# From the text: Purpose: Investigate neuroprotective properties of risuteganib in primary mouse Müller cells exposed to kainic acid, a neuroexcitatory compound that activates glutamate receptors, resulting in overstimulation and cell death. Retinal Müller cells support normal functions of neurons and their dysregulation can leads to loss of homeostasis and neuronal cell death.
# Methods: Fresh retina were collected from CD1 mice and then mechanically dissociated with sterile Pasteur pipette into small aggregates and seeded into 35 mm culture dishes. All cultures were first left unchanged for 5-6 days and then replenished every 3-4 days. When the cell growth had reached around 80% confluency, retinal aggregates and debris were removed by media washes to form a purified cell monolayer. Cells were then exposed to the experimental conditions: (1) untreated control, (2) 1.0 mg/mL risuteganib, (3) 500 μM kainic acid (KA), and (4) 1.0 mg/mL risuteganib for 24 hours before 500 μM kainic acid exposure. 48 hours after kainic acid treatment, dead and live cell numbers were measured using Trypan blue exclusion assay on a hemocytometer.
# [3] = system: study eye of subjects with intermediate non-exudative AMD; experiment: Humphrey visual field assessment (mean deviation, pattern standard deviation); type: in vivo, human
# From the text: Twenty-five subjects were assigned to Group 1 and fifteen (15) subjects were assigned to Group 2.
# [4] = system: study eye of subjects with intermediate non-exudative AMD; experiment: Low-luminance visual acuity; type: in vivo, human
# Procedure: Numerous study assessments were conducted at various time points throughout the study. Included among these study assessments were; refractive eye examinations, determinations of BCVA AND low-luminance BCVA, Lanthony D-15 color vision test, measurement of intraocular pressure (IOP), Indirect ophthalmoscopy/dilated fundus examinations and spectral-domain optical coherence tomography (SD-OCT). Also, blood and saliva samples were obtained from each subject for genetic analysis. The above-listed study assessments were performed at the time points indicated in Table 1, below: Table 10, below, summarizes low-luminescence visual acuity in the study subjects.
# primary human RPE cells [5] = experiment: ROS level (CM-H2DCFDA) in primary human RPE cells exposed to hydroquinone; type: cell-based; conditions: 0.4 mM risuteganib co-treatment with HQ 125-180 uM
# Procedure: (§1) Purpose: To determine if risuteganib protects against hydroquinone (HQ)-mediated cell injury, elevated ROS level and reduced mitochondrial membrane potential (Δψm) in cultured human RPE cells. Elevated ROS levels increase oxidative stress in the cells, leading to reduced cell health and cell death. Loss of ΔΨm is a marker for early cell death. Methods: Primary human RPE cells were seeded on collagen-coated 96-well plates in triplicates at 8K, 10K and […] cells/well, respectively. Cells reached 80% to 100% confluence 24 hours after plating, and confluent cells were then grown for an additional 4 or 5 days until growth was density arrested. On day 6 after plating, cells in the plate upper half were loaded with 20 μM CM-H2DCFDA (measures ROS level) and in the plate lower half with 10 μM JC-1 (measures Δψm) for 30 minutes at 37° C. […] For the ROS and Δψm assays, a fluorescence plate reader was used to quantify ROS production (490-nm excitation, 522-nm emission), and green monomer of JC-1 (490-nm excitation, 522-nm emission) and red JC-1 aggregate (535-nm excitation, 590-nm emission), respectively. […] The WST reagent was quantified with a plate reader at 440 nm and a reference wavelength at 690 nm. Data were normalized to untreated control as 100% and were expressed as the mean±SD.
# primary human RPE cells [6] = experiment: WST-1 cell viability of primary human RPE cells exposed to hydroquinone; type: cell-based; conditions: 0.4 mM risuteganib co-treatment with HQ 125-180 uM
# Procedure: as §1
# [7] = system: human RPE cells (ARPE-19); experiment: Trypan blue viability of human RPE cells (ARPE-19) exposed to hydrogen peroxide; type: cell-based; conditions: 1.0 mg/mL risuteganib alone
# Procedure: Purpose: Investigate cytoprotective properties of risuteganib in human RPE cells (ARPE-19) exposed to hydrogen peroxide, which is a reactive oxygen species that can induce cell death at elevated levels. Methods: ARPE-19 cells were cultured in laminin-coated trans-wells for 2 weeks to induce differentiation. Cells were then exposed to the experimental conditions: […]
# [8] = system: study eye of subjects with intermediate non-exudative AMD; experiment: Microperimetry (mean retinal sensitivity, number of loci summed); type: in vivo, human; remark: listed apart in the source
# [9] = Week 12 change, Group 2 (1 mg IVT day 1 + wk 16)
# [10] = Week 32, Group 2 (1 mg IVT day 1 + wk 16)
# [11] = Week 32 change, Group 1 crossover (sham day 1, 1 mg IVT wk 16)
# [12] = Week 32 change, Group 2 (1 mg IVT day 1 + wk 16)
# [13] = Week 12, Group 2 (1 mg IVT day 1 + wk 16)
# [14] = Week 12, risuteganib group (1 mg IVT day 1 + wk 16)
# [15] = Week 12 change, risuteganib group (1 mg IVT day 1 + wk 16)
# [16] = Week 32, Group 1 crossover (sham day 1, 1 mg IVT wk 16)
# [17] = Week 32, risuteganib group (1 mg IVT day 1 + wk 16)
# [18] = Week 32, sham group after crossover to 1 risuteganib injection (wk 16)
# [19] = Week 32 change, risuteganib group (1 mg IVT day 1 + wk 16)
# [20] = Week 32 change, sham group after crossover to 1 risuteganib injection (wk 16)
smiles,measurement,setting,value
"C[C@@H](O)[C@H](NC(=O)[C@H](CS(=O)(=O)O)NC(=O)CNC(=O)[C@H](CCCNC(=N)N)NC(=O)CN)C(=O)N1CCC[C@H]1C(=O)O [risuteganib, Glycyl-L-arginylglycyl-3-sulfo-L-alanyl-L-threonyl-L-proline] (H-GRG[Cya]TP-OH)","Microperimetry number of loci summed change, median",[1]; [9],4.0
same,"Microperimetry number of loci summed change, mean","[1]; Week 12 change, Group 2 (1 mg IVT day 1 + wk 16), increase = worsening",6.1
same,"Microperimetry number of loci summed (reduced sensitivity), mean",[1]; [10],80.7
same,"Microperimetry number of loci summed change, median",[1]; [11],−1.0
same,"Microperimetry number of loci summed change, median",[1]; [12],−3.0
same,Decrease (improvement) in number of summed loci with reduced retinal sensitivity,[1]; risuteganib responders at Week 32 (FIG. 7),17.75
same,"Change in cell viability, treatment alone",[2],did not induce detectable change in cell viability
same,"Humphrey visual field pattern standard deviation, mean",[3]; [13],3.350 dB
same,"Humphrey visual field pattern standard deviation, median",[3]; [13],1.630 dB
same,"Humphrey visual field mean deviation, mean",[3]; [14],−5.502 dB
same,"Humphrey visual field mean deviation, median",[3]; [14],−3.500 dB
same,"Humphrey visual field pattern standard deviation change, median",[3]; [9],−0.090 dB
same,"Humphrey visual field mean deviation change, mean",[3]; [15],0.302 dB
same,"Humphrey visual field mean deviation change, median",[3]; [15],0.100 dB
same,"Humphrey visual field pattern standard deviation, mean",[3]; [16],2.790 dB
same,"Humphrey visual field pattern standard deviation, median",[3]; [16],2.410 dB
same,"Humphrey visual field pattern standard deviation, mean",[3]; [10],3.113 dB
same,"Humphrey visual field pattern standard deviation, median",[3]; [10],2.050 dB
same,"Humphrey visual field mean deviation, mean",[3]; [17],−5.211 dB
same,"Humphrey visual field mean deviation, median",[3]; [17],−3.470 dB
same,"Humphrey visual field mean deviation, mean",[3]; [18],−4.055 dB
same,"Humphrey visual field mean deviation, median",[3]; [18],−2.260 dB
same,"Humphrey visual field pattern standard deviation change, mean",[3]; [11],0.469 dB
same,"Humphrey visual field pattern standard deviation change, median",[3]; [11],0.360 dB
same,"Humphrey visual field pattern standard deviation change, mean",[3]; [12],0.115 dB
same,"Humphrey visual field pattern standard deviation change, median",[3]; [12],0.045 dB
same,"Humphrey visual field mean deviation change, mean",[3]; [19],0.191 dB
same,"Humphrey visual field mean deviation change, median",[3]; [19],−0.040 dB
same,"Humphrey visual field mean deviation change, mean",[3]; [20],0.158 dB
same,"Humphrey visual field mean deviation change, median",[3]; [20],−0.070 dB
same,"Low-luminance visual acuity letters read, mean",[4]; [13],46.4 letters read
same,"Low-luminance visual acuity letters read, median",[4]; [13],48.0 letters read
same,"Low-luminance visual acuity change in letters read, median",[4]; [9],−1.0 letters read
same,"Low-luminance visual acuity letters read, mean",[4]; [16],50.7 letters read
same,"Low-luminance visual acuity letters read, median",[4]; [16],57.0 letters read
same,"Low-luminance visual acuity letters read, mean",[4]; [10],49.4 letters read
same,"Low-luminance visual acuity letters read, median",[4]; [10],51.0 letters read
same,"Low-luminance visual acuity change in letters read, mean",[4]; [11],2.6 letters read
same,"Low-luminance visual acuity change in letters read, median",[4]; [11],3.0 letters read
same,"Low-luminance visual acuity change in letters read, mean",[4]; [12],2.0 letters read
same,"Low-luminance visual acuity change in letters read, median",[4]; [12],0.0 letters read
same,Reduction of HQ-induced ROS production,primary human RPE cells [5],61%
same,Improvement of HQ-reduced cell viability,primary human RPE cells [6],16%
same,"Change in cell viability, treatment alone",[7],did not induce detectable change in cell viability
same,"Microperimetry mean sensitivity, mean",[8]; [13],7.52 dB
same,"Microperimetry mean sensitivity, median",[8]; [13],7.50 dB
same,"Microperimetry number of loci summed (reduced sensitivity), mean",[8]; [13],84.9
same,"Microperimetry number of loci summed (reduced sensitivity), median",[8]; [13],86.5
same,"Microperimetry mean sensitivity change, median",[8]; [9],−1.50 dB
same,"Microperimetry mean sensitivity, mean",[8]; [16],11.44 dB
same,"Microperimetry mean sensitivity, median",[8]; [16],13.70 dB
same,"Microperimetry number of loci summed (reduced sensitivity), mean",[8]; [16],67.6
same,"Microperimetry number of loci summed (reduced sensitivity), median",[8]; [16],60.0
same,"Microperimetry mean sensitivity, mean",[8]; [10],8.25 dB
same,"Microperimetry mean sensitivity, median",[8]; [10],8.50 dB
same,"Microperimetry number of loci summed (reduced sensitivity), median",[8]; [10],79.5
same,"Microperimetry mean sensitivity change, median",[8]; [11],−0.20 dB
same,"Microperimetry number of loci summed change, mean",[8]; [11],7.9
same,"Microperimetry mean sensitivity change, median",[8]; [12],−0.40 dB
same,"Microperimetry number of loci summed change, mean",[8]; [12],1.0
same,Increase (improvement) in mean retinal sensitivity,[8]; risuteganib responders at Week 32 (FIG. 5),2.2 dB
